Assay results reported in ChEMBL document CHEMBL2074006, “Induction of ABCC3 (MRP3) by pregnane X receptor activators” (Drug Metab Dispos, 2003).

The molecules below were run against ATP-binding cassette sub-family C member 2 (Mus musculus, UniProt Q8VI47) (assay: (§1) TP_TRANSPORTER: quantitative PCR in vivo, liver of mouse).
Format: functional, organism-based

ATP-binding cassette sub-family C member 2, sequence (Q8VI47 whole entry): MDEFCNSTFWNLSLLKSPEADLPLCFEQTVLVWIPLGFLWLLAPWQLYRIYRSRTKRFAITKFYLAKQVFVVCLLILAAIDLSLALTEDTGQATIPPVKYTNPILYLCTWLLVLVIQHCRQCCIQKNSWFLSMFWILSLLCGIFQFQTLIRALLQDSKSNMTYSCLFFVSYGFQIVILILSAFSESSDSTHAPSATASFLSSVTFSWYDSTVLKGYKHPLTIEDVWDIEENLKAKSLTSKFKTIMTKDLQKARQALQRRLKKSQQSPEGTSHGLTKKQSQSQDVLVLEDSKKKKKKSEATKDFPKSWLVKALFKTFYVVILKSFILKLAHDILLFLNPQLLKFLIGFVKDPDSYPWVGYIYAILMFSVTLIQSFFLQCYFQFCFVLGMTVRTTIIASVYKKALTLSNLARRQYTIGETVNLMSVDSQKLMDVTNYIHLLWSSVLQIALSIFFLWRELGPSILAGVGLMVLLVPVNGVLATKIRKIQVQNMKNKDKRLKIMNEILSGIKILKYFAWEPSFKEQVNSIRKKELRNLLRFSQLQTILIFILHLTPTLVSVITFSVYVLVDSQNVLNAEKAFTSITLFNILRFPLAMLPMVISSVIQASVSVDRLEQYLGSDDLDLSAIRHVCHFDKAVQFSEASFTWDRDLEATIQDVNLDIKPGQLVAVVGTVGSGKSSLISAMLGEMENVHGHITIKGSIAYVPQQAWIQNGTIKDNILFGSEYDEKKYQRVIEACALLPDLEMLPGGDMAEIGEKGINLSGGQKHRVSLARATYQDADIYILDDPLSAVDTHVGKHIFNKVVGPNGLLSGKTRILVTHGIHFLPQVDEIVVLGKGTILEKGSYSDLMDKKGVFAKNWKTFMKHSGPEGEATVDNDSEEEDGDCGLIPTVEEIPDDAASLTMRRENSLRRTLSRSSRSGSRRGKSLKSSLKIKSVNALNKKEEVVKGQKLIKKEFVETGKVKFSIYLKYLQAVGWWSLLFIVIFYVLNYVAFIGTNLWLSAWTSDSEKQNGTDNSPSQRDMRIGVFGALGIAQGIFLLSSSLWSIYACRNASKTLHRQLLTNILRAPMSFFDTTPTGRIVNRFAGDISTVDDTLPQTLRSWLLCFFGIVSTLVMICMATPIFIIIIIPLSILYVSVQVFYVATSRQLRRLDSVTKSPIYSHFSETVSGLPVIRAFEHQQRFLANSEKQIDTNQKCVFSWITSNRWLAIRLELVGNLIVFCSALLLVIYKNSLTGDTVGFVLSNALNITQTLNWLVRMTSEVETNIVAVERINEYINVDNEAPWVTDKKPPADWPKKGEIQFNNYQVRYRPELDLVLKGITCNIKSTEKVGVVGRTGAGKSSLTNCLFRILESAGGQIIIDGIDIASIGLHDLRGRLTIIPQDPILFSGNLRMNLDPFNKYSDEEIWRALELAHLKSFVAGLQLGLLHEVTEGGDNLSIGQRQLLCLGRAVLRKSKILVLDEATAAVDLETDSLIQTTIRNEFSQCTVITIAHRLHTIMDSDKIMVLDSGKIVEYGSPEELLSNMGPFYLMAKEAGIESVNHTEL

Row | Activity | SMILES
1 | inducer [] | C#C[C@]1(O)CC[C@H]2[C@@H]3CCC4=CC(=O)CCC4=C3[C@@H](c3ccc(N(C)C)cc3)C[C@]21C

Each molecule was assayed against ATP-binding cassette sub-family C member 3 (Mus musculus, UniProt B2RX12) (assay: as §1).
Format: functional, organism-based

ATP-binding cassette sub-family C member 3, sequence (B2RX12 whole entry): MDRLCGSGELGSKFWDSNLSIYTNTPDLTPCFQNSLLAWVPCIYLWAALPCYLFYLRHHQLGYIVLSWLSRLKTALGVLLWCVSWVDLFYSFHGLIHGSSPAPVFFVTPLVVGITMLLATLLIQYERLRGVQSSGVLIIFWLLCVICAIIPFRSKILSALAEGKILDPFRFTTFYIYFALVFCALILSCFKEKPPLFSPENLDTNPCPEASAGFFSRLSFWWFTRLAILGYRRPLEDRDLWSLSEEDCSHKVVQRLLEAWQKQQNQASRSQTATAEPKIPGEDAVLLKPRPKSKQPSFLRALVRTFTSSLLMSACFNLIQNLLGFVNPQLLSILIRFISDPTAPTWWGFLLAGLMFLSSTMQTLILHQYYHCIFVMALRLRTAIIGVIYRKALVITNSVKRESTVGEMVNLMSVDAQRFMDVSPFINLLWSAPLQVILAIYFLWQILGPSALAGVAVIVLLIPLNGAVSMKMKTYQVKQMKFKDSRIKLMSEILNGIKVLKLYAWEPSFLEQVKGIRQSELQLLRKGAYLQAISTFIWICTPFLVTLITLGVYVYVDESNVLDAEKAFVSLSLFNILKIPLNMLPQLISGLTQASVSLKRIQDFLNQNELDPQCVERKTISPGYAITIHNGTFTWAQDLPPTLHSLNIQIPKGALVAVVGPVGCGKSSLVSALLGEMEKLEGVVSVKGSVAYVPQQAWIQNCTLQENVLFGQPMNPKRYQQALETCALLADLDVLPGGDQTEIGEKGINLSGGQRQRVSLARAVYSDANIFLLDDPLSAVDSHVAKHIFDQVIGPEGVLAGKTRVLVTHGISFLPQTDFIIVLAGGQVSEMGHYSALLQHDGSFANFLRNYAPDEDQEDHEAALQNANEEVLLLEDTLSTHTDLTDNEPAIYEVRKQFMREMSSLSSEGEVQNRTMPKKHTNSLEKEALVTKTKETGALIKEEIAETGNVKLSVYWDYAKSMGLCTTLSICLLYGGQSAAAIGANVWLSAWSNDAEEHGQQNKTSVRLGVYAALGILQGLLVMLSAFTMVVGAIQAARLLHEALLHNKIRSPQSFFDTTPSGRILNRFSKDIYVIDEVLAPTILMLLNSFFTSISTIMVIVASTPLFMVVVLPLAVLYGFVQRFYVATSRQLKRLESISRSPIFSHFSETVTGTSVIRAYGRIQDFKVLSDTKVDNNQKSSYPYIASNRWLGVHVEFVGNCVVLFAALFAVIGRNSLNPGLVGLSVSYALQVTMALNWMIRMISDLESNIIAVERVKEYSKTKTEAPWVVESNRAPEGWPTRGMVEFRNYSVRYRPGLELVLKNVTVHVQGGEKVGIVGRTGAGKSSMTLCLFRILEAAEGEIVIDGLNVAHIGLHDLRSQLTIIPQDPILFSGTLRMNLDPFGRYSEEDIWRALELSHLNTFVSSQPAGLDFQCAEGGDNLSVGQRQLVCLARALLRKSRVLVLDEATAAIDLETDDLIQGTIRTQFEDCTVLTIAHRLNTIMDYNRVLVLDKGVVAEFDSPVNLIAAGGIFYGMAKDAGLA

Row | Activity | SMILES
2 | inducer [] | C#C[C@]1(O)CC[C@H]2[C@@H]3CCC4=CC(=O)CCC4=C3[C@@H](c3ccc(N(C)C)cc3)C[C@]21C
3 | inducer [] | Clc1ccccc1C(c1ccccc1)(c1ccccc1)n1ccnc1 [CLOTRIMAZOLE]
4 | inducer [] | CC(C)(C(=O)c1cccnc1)c1cccnc1 [METYRAPONE]
5 | inducer [] | CO[C@H]1/C=C/O[C@@]2(C)Oc3c(C)c(O)c4c(O)c(c(/C=N/N5CCN(C)CC5)c(O)c4c3C2=O)NC(=O)/C(C)=C\C=C\[C@H](C)[C@H](O)[C@@H](C)[C@@H](O)[C@@H](C)[C@H](OC(C)=O)[C@@H]1C [RIFAMPIN]

Row | SMILES | Activity
6 | C[C@H](CCC(=O)O)[C@H]1CC[C@H]2[C@@H]3CC[C@@H]4C[C@H](O)CC[C@]4(C)[C@H]3CC[C@]12C [LITHOCHOLIC ACID] | inducer []
7 | COC(=O)C1=C(C)NC(C)=C(C(=O)OC)C1c1ccccc1[N+](=O)[O-] [NIFEDIPINE] | inducer []
8 | CC(=O)[C@H]1[C@H](C#N)C[C@H]2[C@@H]3CC=C4C[C@@H](O)CC[C@]4(C)[C@H]3CC[C@@]21C [PREGNENOLONE CARBONITRILE] | inducer []
